From the METLIN SMRT retention time set (Domingo-Almenara et al. 2019)

Test: gradient 5% acetonitrile 3 min, to 50% in 2 min, to 85% in 15 min, held 3 min, 100 µL/min
Conditions: column: Zorbax Extend-C18 2.1 x 50 mm; eluents: water / acetonitrile, 0.1% formic acid
Procedure, shortened: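 Each retention time is based on an adduct peak selected computationally and verified by manual inspection. Measurements used HPLC–quadrupole time-of-flight mass spectrometry in positive and negative ionization mode on mixtures of ~100 pure standards. Chromatography ran on a Zorbax Extend-C18 column (2.1 × 50 mm, 1.8 μm) at 100 μL/min with water and acetonitrile, each containing 0.1% formic acid, and dead and dwell volumes of 40 μL and 900 μL.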

SMILES	RP-LC retention time
COC(=O)C1=CN(c2ccc(C)cc2)c2cc(F)ccc2S1(=O)=O	946 s
CCOc1cc(-c2noc(-c3nnn4c3COC(c3ccc(Cl)cc3)C4)n2)ccc1OC (centres undefined)	1190 s
Clc1cccc(-c2nnc(-c3nc(NCc4cccnc4)c4ccccc4n3)o2)c1	705 s
Cc1cc(C)n(-c2ccc(C(=O)NC3CCC(C)CC3)cn2)n1 (centres undefined)	1010 s
COc1ccc(CNC(=O)c2nnc(-c3ccc(S(=O)(=O)N4CCC(C)CC4)cc3)o2)cc1	1020 s
Cc1ccc2c(=O)c(C(=O)N3CCCCC3)cn(CC(=O)NC3CCCCC3)c2n1	731 s
O=C(CSc1nnc(CCc2nc3ccccc3[nH]2)o1)NCc1c(F)cccc1F	571 s
COc1ccccc1NC(=O)CSc1nnc2c3cc(-c4ccc(F)cc4)nn3ccn12	897 s
CN(C)c1nc(C(=O)N2CCN(c3ccc(F)cc3)CC2)nc2c1cnn2C	739 s
CCOC(=O)C1CCN(c2nc(=O)[nH]c3ccccc23)CC1	646 s
Cc1noc(-c2cc(=O)n(CC(=O)Nc3cc(Cl)ccc3C)c3ccccc23)n1	942 s
CC(C)OCCCNC(=O)C(=O)Nc1ccc(C(C)C)cc1	983 s
CCN(Cc1ccc(F)cc1)Cc1cc(=O)c2cccc(F)c2[nH]1	594 s
CCOc1cc(=O)n2c(c1C(=O)Nc1ccc(Br)c(C)c1)CCCC2	848 s
COc1ccc(NC(=O)CN2CCc3c(c(=O)c4cc(C)ccc4n3C)C2)cc1	599 s
CCc1c(C2CCN(C(=O)c3ccnn3C)CC2)noc1N	596 s
CCOC(=O)c1ccc(NC(=O)c2cc(C)nn2-c2ccccc2)cc1	937 s
O=c1cc(Cn2nc3c(-c4nc(-c5ccccc5)no4)cccn3c2=O)nc2ccccn12	740 s
CC1CCCN(CCCNC(=O)c2nc(CCS(=O)(=O)c3ccc(F)cc3)no2)C1 (centres undefined)	620 s
O=C(Nc1ccc(Cl)cc1)C1(c2cccs2)CCOCC1	976 s
CCc1cc(=O)n(CC(=O)Nc2ccc(C)c(C)c2)c(N)n1	640 s
Cc1ccccc1NS(=O)(=O)c1cc2c3c(c1)CCC(=O)N3CCC2	967 s
CCOC(=O)Nc1nc2c(s1)CN(S(=O)(=O)c1c(C)noc1C)CC2	747 s

SMILES	RP-LC retention time
O=C(CSc1nnc(-c2ccncc2)o1)Nc1cccc([N+](=O)[O-])c1	669 s
CN(C)C(=O)c1cc2c(s1)CCC(C(=O)Nc1ccc3c(c1)OCO3)C2 (centres undefined)	698 s
CCCn1c(-c2cccc(C(=O)NCc3cccs3)c2)nc2cccnc21	782 s
Cc1nc(C)c(C(=O)N2CCC(c3noc(-c4cnccn4)n3)C2)s1 (centres undefined)	632 s
Cc1cccc(NC(=O)N2[C@H]3CC[C@@H]2c2cnc(-c4ccccc4)nc2C3)c1	982 s
Cc1nn(-c2ccc(C(=O)NCc3ccco3)cc2)cc1NC(=O)C(C)C	722 s
COc1ccc(S(=O)(=O)C(CNC(=O)c2ccco2)c2cccs2)cc1 (centres undefined)	735 s
O=S(=O)(c1ccc(-c2cnc(C3CCC3)o2)s1)N1CCN(c2ncccn2)CC1	1040 s
COc1ccc(F)cc1S(=O)(=O)N1C[C@@H]2C[C@H](NC(=O)c3ccccc3)[C@H]1C2	661 s
CCN1C(=O)C2(CCN(C(=O)c3cn(C)cn3)CC2)c2ccccc21	630 s
Cc1ccsc1C(=O)Nc1cccn2c(C)nnc12	670 s
COc1cccc(-c2ccc(NC(=O)C3=C(C(=O)O)CCC3)c(F)c2)c1	1080 s
CC(=O)Nc1ccc(C(=O)N2CCC3(CC2)N=C(c2cccc(Br)c2)NO3)cc1	731 s
O=C(NCC1CCN(C(=O)COc2ccccc2)CC1)Nc1cccc(C(F)(F)F)c1	840 s
O=C(c1nc2ccccc2s1)N(Cc1ccsc1)Cc1ccco1	1110 s
CCOc1ccc(NC(=O)C2CCN(S(C)(=O)=O)c3cc(Cl)ccc3O2)cc1 (centres undefined)	877 s
Cc1cccc(-c2nc(Cn3nnc(-c4nc(-c5cccs5)no4)c3C)c(C)o2)c1	1220 s
CCc1nc(-c2cc(S(=O)(=O)NCC(=O)N3CCOCC3)c(C)s2)no1	753 s
CCOc1ccc(-c2[nH]nc3nc(-c4ccc(OC)cc4)cc(C(=O)O)c23)cc1	654 s
O=C(NCCSc1ncc(-c2ccc(F)cc2)[nH]1)c1ccc(Br)o1	596 s
CCn1cc(-c2ccc(Cl)cc2)cc1C(=O)NCCOC	954 s
CCOC(=O)c1nc(N(Cc2ccccc2)C(C)C)c2ccccc2n1	1000 s
Cc1ccccc1S(=O)(=O)N(C)CC1CCOCC1	837 s

SMILES	RP-LC retention time
CC12CC(NC(=O)N1c1cccc(C(=O)Nc3ccc4c(c3)OCCO4)c1)c1ccccc1O2 (centres undefined)	830 s
COc1cccc(S(=O)(=O)N2CC(n3ccnc3)C2)c1	601 s
CCOC(=O)c1c(C)n(C)c2ccc(OC(C)=O)cc12	889 s
COC(=O)c1ccsc1NC(=O)C1COCC(=O)N1Cc1ccccc1 (centres undefined)	786 s
CN(C)C(=O)c1ccc2c(c1)nc(CN(C)C(=O)Nc1ccccc1Cl)n2C	611 s
CCN(CC)CCNC(=O)CCC(=O)N1CCc2c(c(C(=O)N3CCCC3)nn2C)C1	578 s
CCOc1ccc(N2CC(c3nnc(NC(=O)CCc4ccccc4)o3)CC2=O)cc1 (centres undefined)	726 s
CCCCN(CCCC)CCCOC(=O)c1ccc(N)cc1	738 s
CC1(C)CC(=O)c2cn(-c3ccccc3)c(=O)c(C(=O)N3CCN(c4ccccn4)CC3)c2C1	622 s
COc1ccccc1NC(=O)C1CCN(c2cc(N3CCSCC3)ncn2)CC1	684 s
CCN1C(=O)COc2ccc(-c3noc(C(C)NC(=O)c4ccccc4)n3)cc21 (centres undefined)	856 s
Cc1ccc2nc3c(c(C(=O)NC4CC4)c2c1)CCCC3	584 s
CC(C)n1c(=O)c(Nc2cc(F)cc(F)c2)nc2ccncc21	719 s
CC(C)n1c(=O)oc2cc(-c3noc(CNC(=O)Cc4ccc(Cl)cc4)n3)ccc21	911 s
Cc1ccccc1-c1noc(-c2ccc(S(=O)(=O)N3CCCC3)o2)n1	1070 s
CC(=O)N1CCc2ccccc2C1C(=O)NCc1ccccc1C (centres undefined)	788 s
Cc1ccc(Nc2c(-c3cccc(Cl)c3)nc3ccccn23)cc1	780 s
Cc1cccc(CNS(=O)(=O)c2cc(-c3[nH]ncc3C(=O)N3CCCC3)oc2C)c1	744 s
CCc1nc(-c2csc(S(=O)(=O)N3CCC(C(=O)Nc4ccc(Cl)cc4F)CC3)c2)no1	1060 s
Cc1sc(-c2cc(C(F)(F)F)on2)cc1S(=O)(=O)NCc1ccccc1	1110 s
O=C(CSCc1cnn(-c2ccccc2)c1-n1cccc1)N1CCN(c2ccccn2)CC1	690 s
COCc1cc(=O)n(CC(=O)NCc2ccc(F)c(Cl)c2)c(N)n1	625 s
Cc1cc(-c2nnc(C3CCC3)o2)c(C)n1CC(=O)Nc1ccccc1	846 s

SMILES	RP-LC retention time
Cc1cc(OCC(=O)N2CCCC2)nc(-c2ccc(Cl)cc2)n1	937 s
O=C(Cn1nc2n(c1=O)CCCCC2)NCc1ccc(F)cc1	671 s
CCn1cnc2cc(-c3noc(CNC(=O)c4ccc(C)cc4)n3)ccc21	654 s
CCOc1ccc(CNC(=O)c2ccc3c(c2)N(C)C(=O)C2CCCCN32)cc1OC (centres undefined)	774 s
CC(=O)Nc1ccc(-c2nc(-c3cccc(-c4ccn[nH]4)c3)no2)cc1	790 s
CCc1nn2c(CNS(=O)(=O)c3ccccc3F)c(-c3ccccc3)nc2s1	907 s
CCOCCCNC(=O)C1CCN(c2cc(=O)n(C)c(=O)n2CC)CC1	686 s
CCN1C(=O)c2cccc3c(NC(=O)Nc4cccc(Cl)c4)ccc1c23	889 s
O=C(C1CCN(S(=O)(=O)c2ccc(-c3noc(C4CC4)n3)cc2)CC1)N1CCCCCC1	1030 s
Cc1ncoc1C(=O)N1CCOc2ccc(NC(=O)C3CC3)cc2C1	659 s
O=C(Nc1ccc(F)cc1F)C1CCCN(c2ncnc3c2nc2n3CCCCC2)C1 (centres undefined)	824 s
CN(CCc1noc(-c2ccc(F)cc2)n1)C(=O)NCCc1ccccc1	909 s
CC(=O)OC[C@]12CCC(C)=C[C@H]1O[C@@H]1[C@H](O)[C@@H](OC(C)=O)[C@@]2(C)[C@@]12CO2	750 s
CCCNC(=O)C1CCCN(C(=O)c2[nH]c(C)c(C(=O)OCC)c2C)C1 (centres undefined)	712 s
CCn1c(=O)c(C)nc2cc(-c3noc(C4CC(=O)N(c5ccc(C)c(C)c5)C4)n3)ccc21 (centres undefined)	954 s
COc1ccc(CNC(=O)c2cnc(OC)nc2)cc1	673 s
CCNc1cc(N2CCC(CCC(=O)NCCN3CCc4ccccc4C3)CC2)ncn1	572 s
CCC(=O)NCc1nc2c(n1C)CN(C(=O)c1ccc(Br)cc1)CC2	605 s
COc1cc(NC(=O)CSc2ccc(N3CCCC(C(=O)NC4CC4)C3)nn2)cc(OC)c1 (centres undefined)	642 s
CCc1noc([C@@H]2CC(F)(F)CN2C(=O)c2cocn2)n1	733 s
